What was measured:
RPMI-8226 = experiment: cells; settings: Homo sapiens, RPMI-8226, 48 h; for CC50: read-out: LC50
786-0 = settings: 786-0, 48 h
UO-31 = experiment: cells; settings: Homo sapiens, UO-31, 48 h; for CC50: read-out: LC50, UO-31, 48 h
SK-OV-3 = settings: SK-OV-3, 48 h
SR = settings: 48 h
Renal Cancer = experiment: cells; settings: Homo sapiens; for GI50: read-out: MG_MID GI50; for CC50: read-out: MG_MID LC50
OVCAR-3 = settings: for TGI: OVCAR-3, 48 h
[1] = test system: panel of 60 cancer cell lines; settings: for MG_MID TGI: full panel (last line of Table S2)
NCI/ADR-RES = experiment: cells; settings: Homo sapiens, 48 h; for CC50: read-out: LC50, NCI/ADR-RES, 48 h
K-562 = experiment: cells; settings: Homo sapiens, K562, 48 h; for GI50: K-562, 48 h; for CC50: read-out: LC50
OVCAR-5 = experiment: NCI-60 SRB screen; settings: OVCAR-5, 48 h; for GI50: Homo sapiens
Leukemia [2] = settings: Leukemia subpanel
Breast cancer = experiment: cells; settings: Homo sapiens; for GI50: read-out: MG_MID GI50; for CC50: read-out: MG_MID LC50
TK-10 = experiment: cells; settings: Homo sapiens, TK-10, 48 h; for CC50: read-out: LC50, TK-10, 48 h
NCI-H460 = experiment: NCI-60 SRB screen; settings: NCI-H460, 48 h; for GI50 / CC50: Homo sapiens; for CC50: read-out: LC50
[3] = test system: Non-small cell lung cancer; experiment: cells; settings: Homo sapiens; for GI50: read-out: MG_MID GI50; for CC50: read-out: MG_MID LC50
Melanoma = experiment: cells; settings: Homo sapiens; for GI50: read-out: MG_MID GI50; for CC50: read-out: MG_MID LC50
MDA-MB-231 = experiment: [3H]-thymidine incorporation assay; type: cell-based; settings: Homo sapiens; MDA-MB-231, 24 h of treatment
Outline: (§1)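 Cells treated 24 h with compound at 1, 5, 10 μM (MCF-7) or 5, 15, 30 μM (MDA-MB-231), in triplicate, then pulsed with 0.5 μCi [3H]-thymidine for 4 h at 37 °C. TCA-precipitated, lysed cells counted by scintillation; uptake expressed as percent of control.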

MCF-7 = experiment: [3H]-thymidine incorporation assay; type: cell-based; settings: Homo sapiens, MCF7; MCF-7, 24 h of treatment
Outline: as §1

DU-145 = experiment: cells; settings: Homo sapiens, DU-145, 48 h; for CC50: read-out: LC50, DU-145, 48 h
RXF 393 = experiment: NCI-60 SRB screen; settings: RXF 393, 48 h; for GI50: Homo sapiens
[4] = test system: panel of 60 cancer cell lines; experiment: cells; settings: Homo sapiens, read-out: MG_MID GI50
NCI-H266 = experiment: NCI-60 SRB screen; settings: for GI50 / CC50: Homo sapiens, 48 h; for GI50 / TGI: NCI-H266, 48 h; for CC50: read-out: LC50, NCI-H266, 48 h
UACC-257 = settings: UACC-257, 48 h
HS 578T = experiment: cells; settings: Homo sapiens, 48 h; for GI50: HS 578T; for CC50: read-out: LC50
CCRF-CEM = settings: 48 h
Ovarian cancer = experiment: cells; settings: Homo sapiens; for GI50: read-out: MG_MID GI50; for CC50: read-out: MG_MID LC50
MDA-MB-231/ATCC = settings: 48 h
Leukemia [5] = experiment: cells; settings: Homo sapiens; for GI50: read-out: MG_MID GI50; for CC50: read-out: MG_MID LC50
MCF7 = experiment: NCI-60 SRB screen; settings: MCF7, 48 h; for GI50: Homo sapiens

O=C(O)CCN1C(=O)/C(=C/C=C/c2ccc([N+](=O)[O-])o2)SC1=S [12b, 3-((Z)-5-((E)-3-(5-Nitrofuran-2-yl)allylidene)-4-oxo-2-thioxothiazolidin-3-yl)propanoic acid]
GI50 (RPMI-8226): 1.23 µM | CC50 (RPMI-8226): > 100 µM | TGI (786-0): 3.54 µM | GI50 (UO-31): 1.05 µM | CC50 (UO-31): 4.84 µM | TGI (SK-OV-3): 16.1 µM | TGI (SR): 1.15 µM | GI50 (Renal Cancer): 3.05 µM | CC50 (Renal Cancer): 11.9 µM | growth GP (OVCAR-3; OVCAR-3, 10 μM, 48 h): -96.70% | TGI (OVCAR-3): 3.01 µM | Positive cytostatic effect (ratio of cell lines with GP from 0 to 50 to total number) ([1]; 10 μM, 48 h): 4/55 | Mean growth ([1]; 10 μM, 48 h, one dose): -62.05% | MG_MID TGI [1]: 4.69 µM | GI50 (NCI/ADR-RES): 1.21 µM | CC50 (NCI/ADR-RES): 24.8 µM | GI50 (K-562): 0.34 µM | CC50 (K-562): > 100 µM | GI50 (OVCAR-5): 1.99 µM | TGI (OVCAR-5): 3.70 µM | MG_MID TGI (Leukemia [2]): 2.52 µM | GI50 (Breast cancer): 1.09 µM | CC50 (Breast cancer): 37.4 µM | GI50 (TK-10): 2.02 µM | CC50 (TK-10): 7.19 µM | GI50 (NCI-H460): 1.33 µM | CC50 (NCI-H460): 6.46 µM | TGI (NCI-H460): 2.93 µM | GI50 [3]: 2.59 µM | CC50 [3]: 25.9 µM | GI50 (Melanoma): 1.14 µM | CC50 (Melanoma): 5.56 µM | IC50 (MDA-MB-231): 1.82 µM | IC50 (MCF-7): 6.66 µM | GI50 (DU-145): 2.61 µM | CC50 (DU-145): 33.3 µM | GI50 (RXF 393): 1.58 µM | TGI (RXF 393): 3.02 µM | GI50 [4]: 1.68 µM | GI50 (NCI-H266): 2.83 µM | CC50 (NCI-H266): 79.7 µM | TGI (NCI-H266): 12.5 µM | TGI (UACC-257): 4.08 µM | GI50 (HS 578T): 1.45 µM | CC50 (HS 578T): > 100 µM | TGI (CCRF-CEM): 0.87 µM | GI50 (Ovarian cancer): 2.05 µM | CC50 (Ovarian cancer): 17.7 µM | TGI (MDA-MB-231/ATCC): 3.24 µM | GI50 (Leukemia [5]): 0.66 µM | CC50 (Leukemia [5]): > 100 µM | GI50 (MCF7): 0.46 µM | TGI (MCF7): 2.10 µM

CCCC(C(=O)O)N1C(=O)/C(=C/C=C/c2ccc([N+](=O)[O-])o2)SC1=S (stereo not shown) [4b, 2-((Z)-5-((E)-3-(5-Nitrofuran-2-yl)allylidene)-4-oxo-2-thioxothiazolidin-3-yl)pentanoic acid]
GI50 (RPMI-8226): 1.79 µM | CC50 (RPMI-8226): > 100 µM | TGI (786-0): 12.6 µM | GI50 (UO-31): 1.63 µM | CC50 (UO-31): 6.78 µM | TGI (SK-OV-3): 18.7 µM | TGI (SR): 8.87 µM | GI50 (Renal Cancer): 2.25 µM | CC50 (Renal Cancer): 18.5 µM | TGI (OVCAR-3): 5.39 µM | Positive cytostatic effect (ratio of cell lines with GP from 0 to 50 to total number) ([1]; 10 μM, 48 h): 4/55 | Mean growth ([1]; 10 μM, 48 h, one dose): 36.52% | MG_MID TGI [1]: 5.85 µM | GI50 (NCI/ADR-RES): 2.03 µM | CC50 (NCI/ADR-RES): 21.4 µM | GI50 (K-562): 2.77 µM | CC50 (K-562): > 100 µM | GI50 (OVCAR-5): 1.89 µM | TGI (OVCAR-5): 4.32 µM | MG_MID TGI (Leukemia [2]): 9.43 µM | GI50 (Breast cancer): 1.85 µM | CC50 (Breast cancer): 38.3 µM | GI50 (TK-10): 3.27 µM | CC50 (TK-10): 27.6 µM | GI50 (NCI-H460): 1.7 µM | CC50 (NCI-H460): 6.23 µM | TGI (NCI-H460): 3.25 µM | GI50 [3]: 2.37 µM | CC50 [3]: 29.3 µM | GI50 (Melanoma): 1.67 µM | CC50 (Melanoma): 7.32 µM | IC50 (MDA-MB-231): 3.66 µM | IC50 (MCF-7): 6.13 µM | GI50 (DU-145): 2.42 µM | CC50 (DU-145): 22.8 µM | GI50 (RXF 393): 1.89 µM | TGI (RXF 393): 3.40 µM | GI50 [4]: 2.17 µM | GI50 (NCI-H266): 2.62 µM | CC50 (NCI-H266): 78.9 µM | TGI (NCI-H266): 7.83 µM | TGI (UACC-257): 4.82 µM | GI50 (HS 578T): 1.87 µM | CC50 (HS 578T): > 100 µM | TGI (CCRF-CEM): 7.26 µM | GI50 (Ovarian cancer): 3.12 µM | CC50 (Ovarian cancer): 23 µM | TGI (MDA-MB-231/ATCC): 4.29 µM | GI50 (Leukemia [5]): 2.36 µM | CC50 (Leukemia [5]): > 100 µM | GI50 (MCF7): 1.6 µM | TGI (MCF7): 3.70 µM

CCCCC(C(=O)O)N1C(=O)/C(=C/C=C/c2ccc([N+](=O)[O-])o2)SC1=S (stereo not shown) [6b, 2-((Z)-5-((E)-3-(5-nitrofuran-2-yl)allylidene)-4-oxo-2-thioxothiazolidin-3-yl)hexanoic acid]
GI50 (RPMI-8226): 1.78 µM | CC50 (RPMI-8226): > 100 µM | TGI (786-0): 9.30 µM | GI50 (UO-31): 1.67 µM | CC50 (UO-31): 6.5 µM | TGI (SK-OV-3): 19.4 µM | TGI (SR): 8.66 µM | GI50 (Renal Cancer): 2.24 µM | CC50 (Renal Cancer): 17.7 µM | TGI (OVCAR-3): 5.33 µM | Positive cytostatic effect (ratio of cell lines with GP from 0 to 50 to total number) ([1]; 10 μM, 48 h): 6/55 | Range of growth ([1]; 10 μM, 48 h, one dose): -99.30 to 46.65% | MG_MID TGI [1]: 6.27 µM | GI50 (NCI/ADR-RES): 2.24 µM | CC50 (NCI/ADR-RES): 29.3 µM | GI50 (K-562): 2.6 µM | CC50 (K-562): > 100 µM | GI50 (OVCAR-5): 2.08 µM | TGI (OVCAR-5): 4.62 µM | MG_MID TGI (Leukemia [2]): 9.84 µM | GI50 (Breast cancer): 2.03 µM | CC50 (Breast cancer): 26.7 µM | GI50 (TK-10): 3.13 µM | CC50 (TK-10): 28.3 µM | GI50 (NCI-H460): 1.84 µM | CC50 (NCI-H460): 69.6 µM | TGI (NCI-H460): 3.61 µM | GI50 [3]: 2.43 µM | CC50 [3]: 38.7 µM | GI50 (Melanoma): 1.78 µM | CC50 (Melanoma): 7.07 µM | IC50 (MDA-MB-231): 2.01 µM | IC50 (MCF-7): 5.81 µM | GI50 (DU-145): 3.35 µM | CC50 (DU-145): 32.9 µM | GI50 (RXF 393): 1.69 µM | TGI (RXF 393): 3.20 µM | GI50 [4]: 2.3 µM | GI50 (NCI-H266): 2.22 µM | CC50 (NCI-H266): 76.1 µM | TGI (NCI-H266): 5.84 µM | TGI (UACC-257): 4.31 µM | GI50 (HS 578T): 3.38 µM | CC50 (HS 578T): > 100 µM | TGI (CCRF-CEM): 10.2 µM | GI50 (Ovarian cancer): 3.32 µM | CC50 (Ovarian cancer): 25.7 µM | TGI (MDA-MB-231/ATCC): 4.45 µM | GI50 (Leukemia [5]): 2.57 µM | CC50 (Leukemia [5]): 98.4 µM | GI50 (MCF7): 1.64 µM | TGI (MCF7): 4.11 µM

— publication PMC12655351, “Synthesis and Anticancer Activity Evaluation of New 5-((5-Nitrofuran-2-yl)allylidene)-2-thioxo-4-thiazolidinones” (Pharmaceuticals, 2025)
